Laboratory results published in patent publication US20240350493A1 (Kadmon Corporation, LLC, priority 2022, published 2024).
Like-named read-outs stand apart in the source and are kept apart here.

What was measured:
[1] = phase I two-part drug-drug interaction study, plasma pharmacokinetics (Example 1); assay type: in vivo, human; conditions: male, human, plasma, oral
From the text: The secondary objective was to provide additional information on the safety and tolerability of this dose regimen in healthy males.
This was a single center, non-randomized, DDI study in 35 (Part 1) and 38 (Part 2) healthy males. The key inclusion criterion was males aged 18 to 55 years (inclusive). […] In Part 2, co-administration with omeprazole was studied. The study design is illustrated in FIG. 1.
At least a 2-to 8-day washout occurred between each period to account for a minimum of 5 half-lives of the active moieties dosed in the preceding period.
Blood samples were collected into 6 mL K,EDTA tubes and were processed within 30 minutes of collection. The resultant plasma was then frozen within 90 minutes of collection and stored at […] until shipment to the bioanalytical laboratory.
For each comparison, PK parameters were natural log transformed and analyzed using mixed effect modeling with treatment included as a fixed effect and subject as a random effect. Adjusted geometric mean ratios (GMRs) and corresponding 90% CIs were calculated.

CYP2D6 = CYP2D6 (Homo sapiens, UniProt P10635); assay: incubations with recombinant enzymes; assay type: in vitro ADME
UGT1A9 = UGT1A9 (Homo sapiens, UniProt O60656); assay: enzyme inhibition, in vitro; assay type: in vitro ADME
human serum albumin = human serum albumin (Homo sapiens, UniProt P02768); assay: protein binding in vitro; assay type: in vitro ADME
OATPIB1 = OATPIB1 (Homo sapiens, UniProt Q9Y6L6); assay: transporter inhibition, in vitro; assay type: in vitro ADME; conditions: at clinically relevant concentrations
Chain of OATPIB1 (Q9Y6L6 whole entry): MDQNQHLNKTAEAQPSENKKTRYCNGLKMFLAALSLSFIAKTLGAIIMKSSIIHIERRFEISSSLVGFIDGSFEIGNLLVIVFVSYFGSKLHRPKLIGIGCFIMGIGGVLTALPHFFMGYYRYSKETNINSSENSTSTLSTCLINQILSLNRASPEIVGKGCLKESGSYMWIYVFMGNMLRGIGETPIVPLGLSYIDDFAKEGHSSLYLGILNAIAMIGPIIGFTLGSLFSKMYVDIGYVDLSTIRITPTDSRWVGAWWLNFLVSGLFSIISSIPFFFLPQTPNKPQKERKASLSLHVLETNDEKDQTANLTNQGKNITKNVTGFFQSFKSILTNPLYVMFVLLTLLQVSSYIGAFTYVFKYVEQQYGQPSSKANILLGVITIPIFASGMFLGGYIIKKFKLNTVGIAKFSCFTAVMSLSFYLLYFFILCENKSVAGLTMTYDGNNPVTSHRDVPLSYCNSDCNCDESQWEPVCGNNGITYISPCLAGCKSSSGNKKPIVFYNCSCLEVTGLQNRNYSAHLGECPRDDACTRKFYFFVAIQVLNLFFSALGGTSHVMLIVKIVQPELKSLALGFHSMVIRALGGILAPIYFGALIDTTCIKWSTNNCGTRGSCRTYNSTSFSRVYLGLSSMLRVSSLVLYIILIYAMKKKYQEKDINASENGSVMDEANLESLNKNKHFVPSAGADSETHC

Chain of CYP2D6 (P10635 whole entry): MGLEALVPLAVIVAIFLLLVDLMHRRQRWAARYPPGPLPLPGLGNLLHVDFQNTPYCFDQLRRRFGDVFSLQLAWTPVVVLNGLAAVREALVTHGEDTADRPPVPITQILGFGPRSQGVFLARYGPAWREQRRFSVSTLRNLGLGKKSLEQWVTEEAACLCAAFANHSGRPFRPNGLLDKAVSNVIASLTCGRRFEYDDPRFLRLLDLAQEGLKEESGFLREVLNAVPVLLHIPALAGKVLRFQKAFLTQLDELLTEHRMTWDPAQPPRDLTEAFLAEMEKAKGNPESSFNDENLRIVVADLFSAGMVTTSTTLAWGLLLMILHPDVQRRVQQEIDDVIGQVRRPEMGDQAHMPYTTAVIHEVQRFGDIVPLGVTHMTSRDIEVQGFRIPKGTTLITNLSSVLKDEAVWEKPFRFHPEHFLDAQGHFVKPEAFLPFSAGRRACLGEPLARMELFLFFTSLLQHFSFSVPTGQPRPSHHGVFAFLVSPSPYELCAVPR
Chain of UGT1A9 (O60656 26-530): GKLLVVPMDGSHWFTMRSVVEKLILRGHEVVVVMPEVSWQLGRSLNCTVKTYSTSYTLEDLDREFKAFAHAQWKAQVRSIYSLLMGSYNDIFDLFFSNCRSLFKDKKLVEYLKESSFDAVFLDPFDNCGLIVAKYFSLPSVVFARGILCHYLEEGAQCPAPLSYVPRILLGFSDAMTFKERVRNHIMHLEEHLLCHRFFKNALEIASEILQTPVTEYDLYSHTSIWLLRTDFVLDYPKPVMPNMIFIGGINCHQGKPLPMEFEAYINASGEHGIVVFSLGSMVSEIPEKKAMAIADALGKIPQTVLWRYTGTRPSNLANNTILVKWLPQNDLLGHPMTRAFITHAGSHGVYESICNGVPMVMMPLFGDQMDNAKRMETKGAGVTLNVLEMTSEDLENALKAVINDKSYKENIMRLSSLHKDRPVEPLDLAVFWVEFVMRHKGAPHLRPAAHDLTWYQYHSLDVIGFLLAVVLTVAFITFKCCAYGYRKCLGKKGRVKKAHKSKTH
Chain of human serum albumin (P02768 25-609): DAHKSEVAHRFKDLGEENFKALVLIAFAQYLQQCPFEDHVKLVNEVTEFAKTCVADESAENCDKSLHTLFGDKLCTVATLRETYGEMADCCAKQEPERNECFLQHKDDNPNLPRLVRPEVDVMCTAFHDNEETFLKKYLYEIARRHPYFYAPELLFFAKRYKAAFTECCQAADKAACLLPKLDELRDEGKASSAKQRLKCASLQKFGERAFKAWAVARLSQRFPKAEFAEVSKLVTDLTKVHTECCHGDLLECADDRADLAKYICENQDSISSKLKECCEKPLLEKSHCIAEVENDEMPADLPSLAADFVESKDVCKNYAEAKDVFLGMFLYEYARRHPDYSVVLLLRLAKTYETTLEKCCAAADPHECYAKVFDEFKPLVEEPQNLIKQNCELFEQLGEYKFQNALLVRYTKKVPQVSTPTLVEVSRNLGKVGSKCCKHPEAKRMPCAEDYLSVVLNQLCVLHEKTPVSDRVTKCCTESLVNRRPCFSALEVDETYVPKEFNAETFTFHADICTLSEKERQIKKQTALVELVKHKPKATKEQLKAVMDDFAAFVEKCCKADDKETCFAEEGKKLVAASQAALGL

CC(C)NC(=O)COc1cccc(-c2nc(Nc3ccc4[nH]ncc4c3)c3ccccc3n2)c1 [Belumosudil, 2-{3-[4-(1H-indazol-5-ylamino)-2-quinazolinyl]phenoxy}-N-(propan-2-yl) acetamide]
half-life ([1]; 200 mg belumosudil single dose + itraconazole, read-out: t1/2, arithmetic mean (SD) (converted)): 527 min | half-life ([1]; 200 mg belumosudil single dose + itraconazole, read-out: t1/2, geometric mean (geometric CV %) (converted)): 496 min | AUC from 0 to 24 h ([1]; 200 mg belumosudil single dose + rabeprazole, read-out: AUC0-24, arithmetic mean (SD)): 1730 ng·h/mL | AUC from 0 to 24 h ([1]; 200 mg belumosudil single dose + rabeprazole, read-out: AUC0-24, geometric mean (geometric CV %)): 1510 ng·h/mL | AUC(0-inf) ([1]; 200 mg belumosudil single dose + rabeprazole, read-out: AUCinf, arithmetic mean (SD)): 1940 ng·h/mL | AUC(0-inf) ([1]; 200 mg belumosudil single dose + rabeprazole, read-out: AUCinf, geometric mean (geometric CV %)): 1680 ng·h/mL | AUC(0-t) ([1]; 200 mg belumosudil single dose + rabeprazole, read-out: AUClast, arithmetic mean (SD)): 1850 ng·h/mL | AUC(0-t) ([1]; 200 mg belumosudil single dose + rabeprazole, read-out: AUClast, geometric mean (geometric CV %)): 1580 ng·h/mL | Cmax ([1]; 200 mg belumosudil single dose + rabeprazole, read-out: Cmax, arithmetic mean (SD)): 262 ng/mL | Cmax ([1]; 200 mg belumosudil single dose + rabeprazole, read-out: Cmax, geometric mean (geometric CV %)): 227 ng/mL | Tmax ([1]; 200 mg belumosudil single dose + rabeprazole, read-out: Tmax, median (range)): 5 h | half-life ([1]; 200 mg belumosudil single dose + rabeprazole, read-out: t1/2, arithmetic mean (SD) (converted)): 624 min | half-life ([1]; 200 mg belumosudil single dose + rabeprazole, read-out: t1/2, geometric mean (geometric CV %) (converted)): 468 min | AUC from 0 to 24 h ([1]; 200 mg belumosudil single dose + rifampicin, read-out: AUC0-24, arithmetic mean (SD)): 2630 ng·h/mL | AUC from 0 to 24 h ([1]; 200 mg belumosudil single dose + rifampicin, read-out: AUC0-24, geometric mean (geometric CV %)): 2490 ng·h/mL | AUC(0-inf) ([1]; 200 mg belumosudil single dose + rifampicin, read-out: AUCinf, arithmetic mean (SD)): 2640 ng·h/mL | AUC(0-inf) ([1]; 200 mg belumosudil single dose + rifampicin, read-out: AUCinf, geometric mean (geometric CV %)): 2500 ng·h/mL | AUC(0-t) ([1]; 200 mg belumosudil single dose + rifampicin, read-out: AUClast, arithmetic mean (SD)): 2580 ng·h/mL | AUC(0-t) ([1]; 200 mg belumosudil single dose + rifampicin, read-out: AUClast, geometric mean (geometric CV %)): 2440 ng·h/mL | Cmax ([1]; 200 mg belumosudil single dose + rifampicin, read-out: Cmax, arithmetic mean (SD)): 753 ng/mL | Cmax ([1]; 200 mg belumosudil single dose + rifampicin, read-out: Cmax, geometric mean (geometric CV %)): 712 ng/mL | Tmax ([1]; 200 mg belumosudil single dose + rifampicin, read-out: Tmax, median (range)): 3 h | half-life ([1]; 200 mg belumosudil single dose + rifampicin, read-out: t1/2, arithmetic mean (SD) (converted)): 142 min | half-life ([1]; 200 mg belumosudil single dose + rifampicin, read-out: t1/2, geometric mean (geometric CV %) (converted)): 130 min | Cmax ([1]; 200 mg, 200 mg belumosudil BID alone, first dose, read-out: Cmax, arithmetic mean (SD)): 1880 ng/mL | Cmax ([1]; 200 mg, 200 mg belumosudil BID alone, first dose, read-out: Cmax, geometric mean (geometric CV %)): 1790 ng/mL | Tmax ([1]; 200 mg, 200 mg belumosudil BID alone, first dose, read-out: Tmax, median (range)): 3 h | Cmax ([1]; 200 mg, 200 mg belumosudil BID alone, second dose, read-out: Cmax, arithmetic mean (SD)): 1870 ng/mL | Cmax ([1]; 200 mg, 200 mg belumosudil BID alone, second dose, read-out: Cmax, geometric mean (geometric CV %)): 1760 ng/mL | Tmax ([1]; 200 mg, 200 mg belumosudil BID alone, second dose, read-out: Tmax, median (range)): 15 h | AUC from 0 to 24 h ([1]; 200 mg, 200 mg belumosudil BID alone, read-out: AUC0-24, arithmetic mean (SD)): 17900 ng·h/mL | AUC from 0 to 24 h ([1]; 200 mg, 200 mg belumosudil BID alone, read-out: AUC0-24, geometric mean (geometric CV %)): 16800 ng·h/mL | AUC(0-inf) ([1]; 200 mg, 200 mg belumosudil BID alone, read-out: AUCinf, arithmetic mean (SD)): 20100 ng·h/mL | AUC(0-inf) ([1]; 200 mg, 200 mg belumosudil BID alone, read-out: AUCinf, geometric mean (geometric CV %)): 18800 ng·h/mL | AUC(0-t) ([1]; 200 mg, 200 mg belumosudil BID alone, read-out: AUClast, arithmetic mean (SD)): 20300 ng·h/mL | AUC(0-t) ([1]; 200 mg, 200 mg belumosudil BID alone, read-out: AUClast, geometric mean (geometric CV %)): 18900 ng·h/mL | half-life ([1]; 200 mg, 200 mg belumosudil BID alone, read-out: t1/2, arithmetic mean (SD) (converted)): 429 min | half-life ([1]; 200 mg, 200 mg belumosudil BID alone, read-out: t1/2, geometric mean (geometric CV %) (converted)): 412 min | AUC from 0 to 24 h ([1]; 200 mg, 200 mg belumosudil single dose alone, read-out: AUC0-24, arithmetic mean (SD)): 8830 ng·h/mL | AUC from 0 to 24 h ([1]; 200 mg, 200 mg belumosudil single dose alone, read-out: AUC0-24, geometric mean (geometric CV %)): 8430 ng·h/mL | AUC(0-inf) ([1]; 200 mg, 200 mg belumosudil single dose alone, read-out: AUCinf, arithmetic mean (SD)): 9580 ng·h/mL | AUC(0-inf) ([1]; 200 mg, 200 mg belumosudil single dose alone, read-out: AUCinf, geometric mean (geometric CV %)): 9080 ng·h/mL | AUC(0-t) ([1]; 200 mg, 200 mg belumosudil single dose alone, read-out: AUClast, arithmetic mean (SD)): 9220 ng·h/mL | AUC(0-t) ([1]; 200 mg, 200 mg belumosudil single dose alone, read-out: AUClast, geometric mean (geometric CV %)): 8750 ng·h/mL | Cmax ([1]; 200 mg, 200 mg belumosudil single dose alone, read-out: Cmax, arithmetic mean (SD)): 1850 ng/mL | Cmax ([1]; 200 mg, 200 mg belumosudil single dose alone, read-out: Cmax, geometric mean (geometric CV %)): 1770 ng/mL | Tmax ([1]; 200 mg, 200 mg belumosudil single dose alone, read-out: Tmax, median (range)): 3 h | half-life ([1]; 200 mg, 200 mg belumosudil single dose alone, read-out: t1/2, arithmetic mean (SD) (converted)): 557 min | half-life ([1]; 200 mg, 200 mg belumosudil single dose alone, read-out: t1/2, geometric mean (geometric CV %) (converted)): 473 min | Tmax ([1]; coadministration of rabeprazole, read-out: delay of median Tmax): 2 h | share of belumosudil metabolism (CYP2D6): 21.7% | UGT1A9 inhibition (UGT1A9): inhibitor | binding to human serum albumin (human serum albumin): 99.9% | OATPIB1 inhibition (OATPIB1): inhibits
